Test [1] concerns intestinal transit. Kind of test: Intestinal transit in multi-fistulated dogs, cumulative % recovery of 99mTc-DTPA. Type of test: in vivo, dog. The note with it: for Effect of 5-HT delivered to distal gut on intestinal transit time: n = 2 dogs. An excerpt: The experiments described below are based on a previously described chronic multi-fistulated dog model, employing surgically fistulated male or female mongrel dogs weighing about 25 kg each. (Lin, H. C. et al., Inhibition of gastric emptying by glucose depends on length of intestine exposed to nutrient, Am. J. Physiol. 256:G404-G411 [1989]). The small intestines of the dogs were each about 300 cm long from the pylorus to the ileal-cecal valve. The duodenal fistula was situated 15 cm from the pylorus; the mid-gut fistula was situated 160 cm from the pylorus. Occluding Foley catheters (balloon catheters that are inflated to produce a water-tight seal with the lumenal surface) were placed into the distal limb of a duodenal fistula and a mid-gut fistula, fat or other test agents were administered lumenally to the thus compartmentalized Aproximal≅ section of the gut, i.e., between the fistulas, or to the compartmentalized Adistal≅ section of the gut, i.e., beyond the mid-gut fistula. Perfusate was pumped into a test section through the catheter at a rate of 2 mL/minute. Test agents were administered along with buffer perfusate, but some test agents were administered intravenously, where specifically noted.
Intestinal transit measurements were made by tracking the movement of a liquid marker across the approximately 150 cm intestinal test segment by delivering about 20 μCi ^99mTc chelated to diethyltriamine pentaacetic acid (DTPA)(Cunningham, K. M. et al., Use of technicium-99m (V)thiocyanate to measure gastric emptying of fat, J. Nucl. Med. 32:878-881 [1991]) as a bolus into the test segment after 60 minutes of a 90-minute perfusion. The output from the mid-gut fistula was collected every 5 min thereafter for 30 minutes, which period is illustrated in FIGS. 9-23. Using a matched dose of ^99mTc to represent the original radioactivity (Johansson, C., Studies of gastrointestinal interactions, Scand. J. Gastroenterol. 9(Suppl 28):1-60 [1974]; Zierler, K., A simplified explanation of the theory of indicator dilution for measurement of fluid flow and volume and other distributive phenomena, Bull. John Hopkins 103:199-217 [1958]), the radioactivity delivered into the animal as well as the radioactivity of the recovered fistula output were all measured using a gamma well counter. After correcting all counts to time zero, intestinal transit was calculated as the cumulative percent recovery of the delivered ^99mTc-DTPA. This method has been well validated over the years and appreciated for its advantage of minimal inadvertent marker loss. […] There was a very high level of marker recovery, with 90% of the marker recovered by 30 minutes and 98% of the marker recovered by 45 minutes.

For test [2], the system named is release of 5-HT from the proximal gut. Put plainly: 5-HT released by the proximal gut (ELISA of mid-gut fistula output). The class given is in vivo, dog. The note with it: 5-HT 0.05 mg/kg/h to distal gut; control 156 μg; n=1. As to the method:
To test the hypothesis that fat in the distal gut causes the release of 5-HT in the proximal gut, the amount of 5-HT collected from the output of the mid-gut fistula (proximal gut 5-HT) over a 90-minute period of buffer perfusion through both the duodenal and mid-gut fistulas (2 mL/min); buffer (control) or oleate (60 mM) was administered to the distal gut (n=1). The amount of 5-HT was determined using an ELISA kit specific for 5-HT (Sigma; Graham-Smith, D. G., The carcinoid syndrome, In: Topics in Gastroenterology, Truclove, S. C. and Lee, E. (eds.), Blackwells, London, p. 275 [1977]; Singh, S. M. et al., Concentrations of serotonin in plasma-a test for appendicitis?, Clin. Chem. 34:2572-2574 [1988]). The amount of 5-HT released by the proximal gut increased in response to fat in the distal gut from 100 μg in the control (buffer minus oleate) to 338 μg (buffer plus oleate to distal gut), showing that 5-HT is released in the proximal gut in response to fat in the distal gut. Thus, the release of 5-HT by the proximal gut can serve as a relayed signal for fat in the distal gut. The relayed release of 5-HT in the proximal gut in response to fat in the distal gut is consistent with Example 14(2), showing that slowing of intestinal transit by fat depends on an efferent 5-HT-mediated pathway to the proximal gut.
To test the hypothesis that 5-HT in the distal gut causes the release of 5-HT in the proximal gut, the amount of 5-HT collected from the output at the mid-gut fistula (Proximal gut 5-HT) over a 90-minute period of buffer perfusion through both the duodenal and mid-gut fistulas (2 mL/min each) was compared in the presence or absence of 5-HT (0.05 mg/kg/h) administered to the distal gut (n=1). 5-HT concentration was determined using an ELISA kit specific for 5-HT (Sigma). The amount of 5-HT released by the proximal gut increased from 156 μg in the control (minus distal 5-HT) to 450 μg (plus 5-HT to distal gut), implying that 5-HT is released by the proximal gut in response to 5-HT in the distal gut. Thus, the release of 5-HT by the proximal gut can serve as a relayed signal for distal gut 5-HT. This relayed release of 5-HT in the proximal gut explains the results of Example 14(6) showing that the slowing of intestinal transit by distal gut 5-HT was abolished by ondansetron in the proximal gut (efferent limb of response) as well as in the distal gut (afferent limb of response).
To test the hypothesis that the proximal gut releases 5-HT in response to lipid in the distal gut, we compared the amount of 5-HT in the output of the midgut fistula (i.e., proximal gut 5-HT) with buffered saline (control) or oleate in the distal gut. The amount of 5-HT collected over 90 min was measured using a 5-HT-specific ELISA test kit, as described herein above. Four dogs were tested.
The amount of 5-HT released from the proximal gut in response to intravenous PYY or buffered saline (Control) during buffer perfusion (2 mL/min over 90 minutes) through both the duodenal and mid-gut fistulas was measured to test the hypothesis that intravenous PYY (0.8 mg/kg/h) causes the release of 5-HT in the proximal gut. 5-HT was measured as in Example 14(9) above. The amount of 5-HT released by the proximal gut increased from 140.1 μg (Control) to 463.1 μg in response to intravenous PYY.
On the technique in general: An ELISA detects its analyte on a solid surface through an enzyme-linked reagent.

Test [3] concerns SIBO. Kind of test: Comparison of antibiotic regimes for eradicating SIBO, follow-up lactulose breath hydrogen test (LBHT). The note with it: for % Patients with SIBO Eradicated: follow-up LBHT. The class given is in vivo, human. On the procedure:
Subjects were tested after an overnight fast. […] Each breath sample was then analyzed for hydrogen content with a gas chromatograph (Quintron Model DP, Quintron Instrument Co., Division of E.F. Brewer Co, Menomonee Falls, Wis. 53051), standardized using a QuinGas standard as instructed by the manufacturer. Hydrogen peaks were plotted before and after an antimicrobial treatment regimen for comparison. The normal range for the second hydrogen peak was 0 to 20 ppm. Subjects referred to the Cedars-Sinai GI Motility Program for a lactulose breath hydrogen test (LBHT) to assess SIBO were entered into a database. Those that tested positive for SIBO were given antibiotic treatment by their referring physician and in some cases, returned for a follow-up LBHT to assess eradication of SIBO. During the follow-up LBHT, subjects were asked which antibiotic they were given to treat their SIBO. The eradication rate of each antibiotic was evaluated. Of the 771 subjects in the database, 561 (73%) tested positive for SIBO. […] (See Table 1 below). […] None of the commonly used antibiotics was universally successful in eradicating overgrowth.

The subject of test [4] is SIBO. Put plainly: Antibiotic treatment of Crohn's disease subjects with SIBO. The class given is in vivo, human. The conditions noted are these: Crohn's subjects; pooled over the named antibiotics. On the procedure: To correct for selection bias, a pilot study was conducted to determine the incidence of SIBO in subjects who had received a suspected diagnosis of Crohn's disease at Cedars-Sinai Medical Center=s IBD Center within the preceding three months.

Test [5] deals with ileal brake. The note with it: rats, Brown et al. 1993, cited from earlier work.

The structures appear in SMILES notation.

With `NCCc1c[nH]c2ccc(O)cc12` [5-HT, 5-hydroxytryptamine], the “Effect of 5-HT delivered to distal gut on intestinal transit time” value in test [1] (0.033 mg/kg/h × 90 min, 0 dose 68.5 ± 1.0) is given as 69.6 ± 4.2 min; in test [1] (0.05 mg/kg/h × 90 min) it was 33.5 ± 1.5 min; in test [1] (0.066 mg/kg/h × 90 min) it was 15.2 ± 0.5 min; in test [1] (0.1 mg/kg/h × 90 min), 16.1 ± 4.9 min; in test [1] (0.3 mg/kg/h × 90 min), 73.8 ± 0.6 min. The marker recovery in test [1] (0.1 mg/kg/h 5-HT into distal gut, Saline-Dist 76.1±1.3%) is given as 35.2±2.3%; in test [1] (0.1 mg/kg/h 5-HT into proximal gut, Saline-Prox 85.0±7.3%, four dogs) it was 20.1±4.5%; in test [1] (5-HT 0.05 mg/kg/h in distal gut, Buffer Control 79.4±4.1%) it was 37.0±1.8%; in test [1] (5-HT 0.05 mg/kg/h to distal gut, Buffer Control 83.3±3.3%, n=2), 36.1±2.3%; in test [1] (5-HT 0.1 mg/kg/h to distal gut, buffer control 76.1±4.7%, four dogs) it was 35.2±2.2%; in test [1] (5-HT in distal gut, 2 mg (0.033 mg/kg/h) over 90 min, buffer 81.2%, n=1), 73.8%. Besides, the marker recovery in test [1] (5-HT in distal gut, 3 mg (0.05 mg/kg/h), n=1) is given as 53.1%; in test [1] (5-HT in distal gut, 4 mg (0.066 mg/kg/h), n=1), 11.6%; in test [1] (5-HT in proximal gut, 0.033 mg/kg/h), “not significantly different from the buffer control”; in test [1] (5-HT in proximal gut, 0.05 mg/kg/h) it was 33.2±14.0%; in test [1] (5-HT in proximal gut, 0.066 mg/kg/h, buffer 75.0±4.4%, four dogs), 16.9±+3.7%. In test [1] (5-HT 0.1 mg/kg/h distal gut, Saline (i.v.)), the “proximal intestinal transit, cumulative % marker recovered” value amounted to 28.27 ± 5.03%. Also, the “amount of 5-HT released by the proximal gut” value in test [2] came out at 450 µg.

Take `O=C(O)c1cn(C2CC2)c2cc(N3CCNCC3)c(F)cc2c1=O` [Ciprofloxacin, ciprofloxacin]: the “% Patients with SIBO Eradicated” value in test [3] was 50%. For the same molecule, the “improvement in symptoms, breath test negative after antibiotic” value in test [4] is recorded as 69±27%.

Turning to `Cc1ncc([N+](=O)[O-])n1CCO` [Flagyl, metronidazole], the “success in eradicating SIBO, comparison of antibiotics” value in test [3] (105 subjects with follow-up LBHT) was “relatively poor choice by itself”. Moreover, the “% Patients with SIBO Eradicated” value in test [3] amounted to 25%. Besides, in test [4], the “improvement in symptoms, breath test negative after antibiotic” value is listed as 69±27% and the “improvement in symptoms, subjects remaining positive on breath test after antibiotic” value was 20±0%.

On to `CN1C2CCCC1CC(NC(=O)c1nn(C)c3ccccc13)C2` (centres unmarked) [granisetron], for which, in test [5] (subcutaneous administration), the “ileal brake induced by ileal infusion of lipid” value is “abolished the ileal brake” and the “intestinal transit of a baked bean meal” value is on record as “delayed”.

`C=CCN1CC[C@]23c4c5ccc(O)c4O[C@H]2C(=O)CC[C@@]3(O)[C@H]1C5` [naloxone]: the marker recovery in test [1] (60 mM oleate in proximal gut with 3 mg naloxone) is 41.0±5.2%; in test [1] (60 mM oleate in proximal gut with 6 mg naloxone), 62.8±8.2%; in test [1] (60 mM oleate in proximal gut with 12 mg naloxone), 60.6±6.1%; in test [1] (buffer in proximal gut with 6 mg naloxone, no fat, without naloxone 81.3±6.1%, n=3) it was 88.0±1.3%; in test [1] (distal gut 5-HT + naloxone 6 mg in proximal gut) it was 90.1±4.6%; in test [1] (ileal brake + 6 mg naloxone to distal gut), 29.4±5.4%. Moreover, in test [1] (ileal brake + 6 mg naloxone to proximal gut), the marker recovery was found to be 76.2±5.2%. Moreover, the ileal brake result in test [5] is given as “abolish the ileal brake”.

Consider `NC[C@H](O)c1ccc(O)c(O)c1` [norepinephrine], for which the “Transit Across Proximal Gut (Cumulative % Marker Recovered)” value in test [1] (Buffer + NE i.v. 50 mg/30 ml/1.5 h, Buffer Control 68.5 ± 5.0, five dogs) is reported as 16.3 ± 3.4^ab %. Further, the marker recovery in test [1] (intravenous norepinephrine 0.12 μg/kg/h + normal saline, Buffer Control 76.9%, n=2) is listed as 13.3%.

As to `CC(C)NCC(O)COc1cccc2ccccc12` (centres unmarked) [propranolol], the results for the “proximal intestinal transit, cumulative % marker recovered” value in test [1] (60 mM oleate distal gut + Propranolol (i.v.) 50 μg/kg/h) and in test [1] (5-HT distal gut + Propranolol (i.v.) 50 μg/kg/h) were 66.42 ± 8.26% and 63.85 ± 8.76%, respectively. Moreover, the marker recovery in test [1] (distal gut 5-HT + intravenous propranolol 50 μg/kg/h) is 77.7±7.6%; in test [1] (distal gut oleate + intravenous propranolol 50 μg/kg/h), 72.1±4.7%; in test [1] (intravenous PYY + intravenous propranolol 50 μg/kg/h), 66.3±3.1%.

The values are drawn from patent US9358276B2, “Methods of diagnosing and treating small intestinal bacterial overgrowth (SIBO) and SIBO-related conditions” (Cedars-Sinai Medical Center, priority 1999, dated 2016).
